Measurements taken from publication PMC5118709, “Identification of Polo-like kinase 1 interaction inhibitors using a novel cell-based assay” (Scientific Reports, 2016).
Where “and” joins values, the source holds several entries; their conditions need not be identical. Equal entries are not always repeated.

Columns and labels:
[1] = test system: HeLa cells; experiment: mitotic defect phenotypes by immunofluorescence; assay type: cell-based; conditions: 10 μM, 7 h
In short: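 HeLa cells on poly-L-lysine coverslips treated 7 h, fixed in 4% formaldehyde/PHEM at 37 °C. Immunostained for pericentrin and α-tubulin with DAPI for DNA; spindle organisation scored by fluorescence microscopy against DMSO controls.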

[2] = molecular target: PBD of Plk1 (Homo sapiens, UniProt P53350); experiment: fluorescence polarization assay PBD-Map peptide; assay type: binding
Chain of PBD of Plk1 (P53350 367-603 limits assumed): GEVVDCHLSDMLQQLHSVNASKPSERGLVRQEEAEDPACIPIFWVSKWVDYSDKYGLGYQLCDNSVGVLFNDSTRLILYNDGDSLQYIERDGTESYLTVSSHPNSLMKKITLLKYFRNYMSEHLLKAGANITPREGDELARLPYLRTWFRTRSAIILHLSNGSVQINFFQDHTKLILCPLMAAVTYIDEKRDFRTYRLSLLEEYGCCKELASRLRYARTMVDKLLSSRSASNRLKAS
Procedure: The FP buffer was composed of 10 mM Tris pH 8.0, 50 mM NaCl, 1 mM EDTA, 20% glycerol and 0.1% NP-40. The peptide (final concentration 10 nM) was always added to the wells of non-binding, black, 384-well plates, 1 hour after the addition of the protein with the buffer (+/− treatment, 10% DMSO). […] EC65s were used to perform the competitive assays with the non-labeled peptides and with the inhibitors. FP Inhibition was calculated with the formula: 100 − [((mPsample − mPfree peptide)\(mPDMSO − mPfree peptide)) × 100]. […] (Map peptide), and corresponding non-labeled peptides are identical but without FITC in N-terminal. […] Inhibition curves were fitted with GraphPad (Prism software).

[3] = test system: PBD; design: method as in PMID 19033445; conditions: cited from earlier work
[4] = test system: mitosis; conditions: cited from earlier work
[5] = molecular target: Plk1-Map interaction (Homo sapiens, UniProt P53350); experiment: LUMIER co-immunoprecipitation assay Plk1-Map
Chain of Plk1-Map interaction (P53350 whole entry): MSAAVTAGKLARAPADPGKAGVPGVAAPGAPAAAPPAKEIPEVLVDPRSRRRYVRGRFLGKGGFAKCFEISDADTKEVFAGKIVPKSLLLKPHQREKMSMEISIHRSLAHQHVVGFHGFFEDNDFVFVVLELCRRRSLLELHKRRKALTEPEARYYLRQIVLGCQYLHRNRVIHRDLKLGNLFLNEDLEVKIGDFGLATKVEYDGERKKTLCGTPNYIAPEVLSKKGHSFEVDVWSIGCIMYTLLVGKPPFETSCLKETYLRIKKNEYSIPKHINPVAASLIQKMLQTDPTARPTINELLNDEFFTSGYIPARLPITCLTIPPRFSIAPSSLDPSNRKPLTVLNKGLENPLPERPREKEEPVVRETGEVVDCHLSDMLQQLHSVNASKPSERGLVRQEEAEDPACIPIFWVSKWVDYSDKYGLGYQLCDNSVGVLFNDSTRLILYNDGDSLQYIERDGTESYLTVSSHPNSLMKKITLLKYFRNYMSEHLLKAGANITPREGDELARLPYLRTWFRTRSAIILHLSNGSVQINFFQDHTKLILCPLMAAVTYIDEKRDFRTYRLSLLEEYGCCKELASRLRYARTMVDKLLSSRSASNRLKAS

[6] = molecular target: GST-PBD367-603 of Plk1 (Homo sapiens, UniProt P53350); experiment: fluorescence polarization assay PBD-phosphopeptide; conditions: IC50 in FP, GST-PBD367-603 38 nM, 1 h pre-incubation, FITC-phosphopeptide 10 nM, Fig. 4C
Chain of GST-PBD367-603 of Plk1 (P53350 367-603): as the sequence (P53350 367-603 limits assumed) above
Description: In this assay, an optimal phosphopeptide for PBD binding is coupled with a FITC fluorophore and its binding to purified recombinant PBD of Plk1 is monitored by the change in polarization of incident light.

## O=c1c(O)cccc2cc(O)c(O)c(O)c12 [PPG, purpurogallin, reference compound]
[1]
  2 > pericentrin foci (percentage of cells): 7 ± 4%
  Disorganized spindles (percentage of cells): 41 ± 6%
[2]
  disruption of the PBD-Map interaction in FP: disrupted the PBD-Map interaction
[3]
  concentrations active in vitro: low micromolar concentrations
[4]
  concentrations impacting mitosis: high micromolar concentrations
[5]; 10-25 μM, 2 h
  Average-Beads (mean luminescence): 301,042
[5]; mean divided by maximum mean of the compounds
  Relative Luminescence Unit: 0.351
[5]; raw data, 10-25 μM, 2 h
  Luminescence on beads, duplicate wells: 290,044 and 312,040
[6]
  IC50: 126 µM
